# Literature values in patent publication EP0527762B1, “INHIBITION OF ALLOGRAFT AND […] REJECTION” (priority 1990, dated 1991).
# Test system: rabbit kidney xenografts
# Conditions: rabbit kidney into cats, discordant
row,SMILES,prevention of hyperacute rejection
1,CCCCC[C@H](O)/C=C/[C@@H]1[C@H]2C/C(=C/CCCC(=O)O)O[C@H]2C[C@H]1O [prostacyclin],not prevented
2,O=C(O)c1cc(=O)c2c(OCC(O)COc3cccc4oc(C(=O)O)cc(=O)c34)cccc2o1 [sodium chromoglycate],not prevented
3,CCOC(=O)[C@H](CCc1ccccc1)N[C@@H](C)C(=O)N1CCC[C@H]1C(=O)O [enalapril],not prevented
4,C[C@H](CS)C(=O)N1CCC[C@H]1C(=O)O [captopril],not prevented
